Assays:
[1] = biological target: T1, firefly luciferase (Photinus pyralis, UniProt P08659); assay: Detergent screen with Tergitol NP-9, firefly luciferase (Example 3); assay type: biochemical; settings: 0.06% quencher in reagent solution; 0.5% Tergitol NP-9
Procedure: (§1) Unless otherwise specified, materials were obtained from Sigma-Aldrich.
(§2) The firefly luciferase and Renilla luciferase enzymes were diluted as follows. Firefly luciferase was diluted to 14 ng/ml in Delbecco's Minimal Essential (DMEM) medium (Gibco/Invitrogen) containing 0.1% Prionex®. Renilla luciferase was diluted to 10 ng/ml in DMEM medium containing 0.1% Prionex®.
(§3) The luciferase reactions were initiated by adding 50 μl of the firefly luciferase or Renilla luciferase enzyme solution to 50 μl of reagent solution. The reactions were performed as described above. The retained firefly luciferase and Renilla luciferase luminescence as well as the selectivity values for each quencher were calculated (Table 3). The values listed are based on 0.06% quencher in the reagent solution.

[2] = biological target: T2, Renilla luciferase (Renilla reniformis, UniProt P27652); assay: Versions of firefly luciferase reagent, firefly/Renilla luciferase samples (Example 10); assay type: biochemical; settings: firefly/Renilla sample
T2 sequence (P27652 1-311): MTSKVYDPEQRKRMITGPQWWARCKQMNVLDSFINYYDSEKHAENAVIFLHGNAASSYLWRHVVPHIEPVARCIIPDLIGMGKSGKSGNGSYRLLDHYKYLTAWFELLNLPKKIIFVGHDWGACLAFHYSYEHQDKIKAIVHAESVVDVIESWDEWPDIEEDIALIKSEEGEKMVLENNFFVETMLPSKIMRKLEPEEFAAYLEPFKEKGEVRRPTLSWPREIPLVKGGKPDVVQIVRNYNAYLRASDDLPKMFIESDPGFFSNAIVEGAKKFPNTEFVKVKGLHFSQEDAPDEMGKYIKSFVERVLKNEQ
Procedure: (§4) Eight different versions of firefly luciferase reagent were made. The versions contained one of two luciferin substrates: luciferin or 5′ fluoroluciferin. The versions also differed in whether they contained Coenzyme A and/or DTT (a thiol). All versions of the reagent contained 250 mM HEPES pH 7.4, 16 mM MgSO4, 2 mM ATP and 2 mM luciferin or 5′fluoroluciferin. To create the various versions of the firefly luciferase reagent, 20 mM DTT, 2 mM Coenzyme A, 20 mM DTT and 2 mM Coenzyme A or neither DTT or Coenzyme A was added. In addition, sub-versions of the reagent were created which contained 0.3 mM of the indole (#3077) Renilla luciferase quencher, 0.04% (w:v) of the detergent (4-((dodecyldimethylammonium)methyl)benzoate) Renilla luciferase quencher, both quenchers or neither quencher. In all, a total of 32 versions of firefly luciferase reagent were created (Table 10).
(§5) To mimic the effect of measuring Renilla luciferase luminescence followed by the measurement of firefly luciferase luminescence in a single sample, side-by-side samples (each in triplicate) were used for each version of reagent. The first triplicate of samples comprised one of the versions of firefly luciferase reagent and a firefly luciferase solution (added 1:1) containing F12 medium (Invitrogen), 1 mg/ml BSA (ThermoFisher) and 14 ng/ml QuantiLum® luciferase (Promega). The second triplicate of samples comprised the same version of firefly luciferase reagent used in the first trio and a firefly/Renilla luciferase solution (added 1:1) containing F12 medium, 1 mg/ml BSA, 14 ng/ml QuantiLum® luciferase and 140 ng/ml Renilla luciferase. Firefly and Renilla luciferase luminescence was measured as previously described in both sets of samples at the same time. […] The firefly luciferase measurements were obtained from the samples only containing the firefly luciferase while the Renilla luciferase measurements were obtained from the samples containing both firefly and Renilla luciferases.

[3] = biological target: T2, Renilla luciferase; assay: Detergent screen with Tergitol NP-9, Renilla luciferase (Example 3); assay type: biochemical; settings: 0.5% Tergitol NP-9; for Retained Renilla Luminescence (%): 0.06% quencher in reagent solution; for Selectivity Value: retained firefly / retained Renilla, 0.06% quencher
Procedure: as §1, §2, §3

[4] = biological target: T1, firefly luciferase; assay: Versions of firefly luciferase reagent, firefly luciferase only samples (Example 10); assay type: biochemical
Procedure: as §4, §5

[5] = biological target: T2, Renilla luciferase; assay: Quench of Renilla luciferase luminescence in lysed CHO cells expressing Renilla luciferase (Example 7); assay type: cell-based; settings: for Inhibition (Initial/Addition): 10 μM #3077 and/or 0.04% #1424, 0.5% Tergitol NP-9; for Renilla luciferase luminescence after inhibitor addition: 3 minutes after lysis solution with 0.5% Tergitol NP-9 and 10 μM #3077 and/or 0.04% #1424; for Initial Renilla luciferase luminescence: CHO cells, EnduRen, before inhibitor addition
Procedure: Renilla luciferase was expressed under the control of the CMV promoter in Chinese Hamster Ovary (CHO) cells. The cells were grown in DMEM+10% FBS (Invitrogen). The cells (20,000) were plated in 96-well plates and cultured in the presence of the EnduRen™ Live Cell Substrate (Promega) in order to generate continuous Renilla luciferase-mediated luminescence. After 12 hours of culturing, Renilla luciferase-mediated luminescence was measured. After measurement, the cells were lysed with an equal volume of a solution containing 0.5% Tergitol NP-9 and either 10 μM compound #3077 (non-detergent inhibitor), 0.04% 4-((dodecyldimethylammonium)methyl)benzoate (#1424) (detergent inhibitor), or a combination of the two. The cells were exposed for 3 minutes and Renilla luciferase-mediated luminescence was measured.

[6] = biological target: T1, firefly luciferase; assay: Non-detergent compound screen, firefly luciferase (Example 6); assay type: biochemical; settings: 0.5% Tergitol NP-9, 0.03% BDDABr, read-out: Retained Firefly Luciferase Value (%)
Procedure: (§6) Each compound was diluted into 200 mM MOPS pH 6.7, 4 μM MgSO4, 1 mM CDTA, 0.5% Tergitol NP-9, 0.05% Mazu-DF-204, 0.03% BDDABr, 30 mM thiourea, 1 mM bis-(2-mercaptoethylsulfone) (BMS), 4 μM CoA, and 1 μM 5-fluoroluciferin. Just prior to the luciferase reaction, 0.1% Prionex® (Pentapharm) and 2.9 μM coelenterazine-h (Promega) were added to each solution.
(§7) The firefly luciferase and Renilla luciferase enzymes were diluted as described in Examples 3 and 5. The luciferase reactions were initiated by adding 50 μl of the firefly luciferase and Renilla luciferase enzyme solution to 50 μl of reagent solution. The reactions were performed as described above. The retained Renilla and firefly luciferase-mediated luminescence and selectivity values for each inhibitor tested are listed in Table 6.

[7] = biological target: T2, Renilla luciferase; assay: Non-detergent compound screen, Renilla luciferase (Example 6); assay type: biochemical
Procedure: as §6, §7

[8] = biological target: T2, Renilla luciferase; assay: Quench of Renilla luciferase luminescence by competitive inhibitors in detergent-containing quenching reagent (Example 1); assay type: biochemical
Procedure: Renilla luciferase (1×10^−9 M in Renilla Luciferase Lysis Buffer (Promega))+0.1% Prionex (PentaPharma) was added to Renilla Luciferase Assay Buffer (Promega) containing 3 μM coelenterazine-h. The initial Renilla luciferase-mediated luminescence was measured for 10 seconds using a Turner 20/20 n (Turner BioSystems). A quenching reagent containing 50 mM HEPES pH 7.4, 16 mM MgSO4, 1 mM CDTA, 0.5% Tergitol NP-9, 0.015% dodecyltrimethylammonium bromide, 10 mM thiourea, 0.05% Mazu-DF-204 (PGP), and 1.5 mM ATP (Pharmacia) was added to the reactions to reduce the Renilla luciferase-mediated luciferase luminescence. […] After the addition of the inhibitors, a second Renilla luciferase-mediated luminescence reading was taken. Unless otherwise specified, materials were obtained from Sigma-Aldrich.
The quenching agents described herein are effective in the presence of detergents used for cell lysis as well as other quenching agents.

[9] = Luciferin, no thiol, 0.3 mM #3077 and/or 0.04% #1424
[10] = Quench Reagent + 10 μM inhibitor
[11] = Quench Reagent + 100 μM inhibitor

T1 sequence (P08659 whole entry): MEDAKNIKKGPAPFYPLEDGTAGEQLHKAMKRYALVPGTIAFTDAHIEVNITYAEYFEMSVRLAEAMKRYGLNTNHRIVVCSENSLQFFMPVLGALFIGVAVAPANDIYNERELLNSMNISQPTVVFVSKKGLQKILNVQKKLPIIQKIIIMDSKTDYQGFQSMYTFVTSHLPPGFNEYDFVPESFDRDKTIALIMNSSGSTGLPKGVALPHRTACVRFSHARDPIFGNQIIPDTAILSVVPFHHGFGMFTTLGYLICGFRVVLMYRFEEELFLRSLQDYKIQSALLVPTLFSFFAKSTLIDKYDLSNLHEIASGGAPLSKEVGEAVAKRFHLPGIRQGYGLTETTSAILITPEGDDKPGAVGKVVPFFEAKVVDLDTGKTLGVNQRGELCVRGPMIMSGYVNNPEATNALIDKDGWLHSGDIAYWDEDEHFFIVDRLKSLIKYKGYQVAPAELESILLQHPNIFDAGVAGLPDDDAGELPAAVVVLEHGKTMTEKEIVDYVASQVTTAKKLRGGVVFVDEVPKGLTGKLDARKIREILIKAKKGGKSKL

CCCCCCCCCCCC[N+](C)(C)Cc1ccc(C(=O)[O-])cc1 [Compound 1424, 4-((Dodecyldimethylammonium)methyl)benzoate]
Retained Firefly Luminescence (%) [1]: 127.0%
Renilla luminescence ([2]; 5′-fluoroluciferin, CoA): 2,891,880
Renilla luminescence ([2]; 5′-fluoroluciferin, DTT + CoA): 2,833,435
Renilla luminescence ([2]; 5′-fluoroluciferin, DTT): 1,142,573
Renilla luminescence ([2]; 5′-fluoroluciferin, no thiol): 1,138,027
Renilla luminescence ([2]; Luciferin, CoA): 2,240,063
Renilla luminescence ([2]; Luciferin, DTT + CoA): 2,265,505
Renilla luminescence ([2]; Luciferin, DTT): 699,059
Renilla luminescence ([2]; Luciferin, no thiol): 660,916
Retained Renilla Luminescence (%) [3]: 20.0%
Selectivity Value [3]: 6.4
Firefly luminescence ([4]; 5′-fluoroluciferin, CoA): 2,095,790
Firefly luminescence ([4]; 5′-fluoroluciferin, DTT): 512,625
Firefly luminescence ([4]; 5′-fluoroluciferin, DTT + CoA): 2,376,253
Firefly luminescence ([4]; 5′-fluoroluciferin, no thiol): 268,289
Firefly luminescence ([4]; Luciferin, CoA): 1,621,883
Firefly luminescence ([4]; Luciferin, DTT): 291,173
Firefly luminescence ([4]; Luciferin, DTT + CoA): 1,881,453
Firefly luminescence [4, 9]: 144,239
Inhibition (Initial/Addition) [5]: 52
Renilla luciferase luminescence after inhibitor addition [5]: 19963
Initial Renilla luciferase luminescence [5]: 1037560

CCCC[N+](C)(C)CCc1c[nH]c2ccc(/C=C/C(=O)NCc3ccc(OC)cc3)cc12.[I-] [Compound 3077, (E)-N-(2-(5-(3-(4-methoxybenzylamino)-3-oxoprop-1-enyl)-1H-indol-3-yl)ethyl)-N,N-dimethylbutan-1-aminium iodide]
Renilla luminescence ([2]; 5′-fluoroluciferin, CoA): 2,360,350
Renilla luminescence ([2]; 5′-fluoroluciferin, DTT + CoA): 2,653,610
Renilla luminescence ([2]; 5′-fluoroluciferin, DTT): 514,808
Renilla luminescence ([2]; 5′-fluoroluciferin, no thiol): 280,188
Renilla luminescence ([2]; Luciferin, CoA): 1,572,983
Renilla luminescence ([2]; Luciferin, DTT + CoA): 1,770,665
Renilla luminescence ([2]; Luciferin, DTT): 260,392
Renilla luminescence ([2]; Luciferin, no thiol): 136,759
Firefly luminescence ([4]; 5′-fluoroluciferin, CoA): 2,367,927
Firefly luminescence ([4]; 5′-fluoroluciferin, DTT): 499,900
Firefly luminescence ([4]; 5′-fluoroluciferin, DTT + CoA): 2,677,367
Firefly luminescence ([4]; 5′-fluoroluciferin, no thiol): 239,138
Firefly luminescence ([4]; Luciferin, CoA): 1,502,143
Firefly luminescence ([4]; Luciferin, DTT): 252,225
Firefly luminescence ([4]; Luciferin, DTT + CoA): 1,821,797
Firefly luminescence [4, 9]: 115,749
remaining activity at 10 µM ([6]; inhibitor 10 μM): 100%
remaining activity at 100 µM ([6]; inhibitor 100 μM): 98%
remaining activity at 1000 µM ([6]; inhibitor 1000 μM): 98%
Selectivity Value ([7]; inhibitor 10 μM): 20
remaining activity at 10 µM ([7]; inhibitor 10 μM, 0.5% Tergitol NP-9, 0.03% BDDABr, read-out: Retained Renilla Luciferase Value (%)): 5%
Selectivity Value ([7]; inhibitor 100 μM): 98
remaining activity at 100 µM ([7]; inhibitor 100 μM, 0.5% Tergitol NP-9, 0.03% BDDABr, read-out: Retained Renilla Luciferase Value (%)): 1%
Selectivity Value ([7]; inhibitor 1000 μM): 980
remaining activity at 1000 µM ([7]; inhibitor 1000 μM, 0.5% Tergitol NP-9, 0.03% BDDABr, read-out: Retained Renilla Luciferase Value (%)): 0.1%
Inhibition (Initial/Addition) [5]: 608
effectiveness at quenching Renilla luciferase-mediated luminescence relative to #1424 alone ([5]; 10 μM #3077 vs 0.04% #1424): about 12 fold
Renilla luciferase luminescence after inhibitor addition [5]: 1402
Initial Renilla luciferase luminescence [5]: 852596

CCCCCCCCCCCC[N+](C)(C)Cc1ccccc1-c1ccccc1.[Br-] [N-(biphenyl-2-ylmethyl)-NN-dimethyldodecyan-1-ammonium bromide]
Retained Firefly Luminescence (%) [1]: 177.0%
Retained Renilla Luminescence (%) [3]: 0.8%
Selectivity Value [3]: 221.3

C[N+](C)(Cc1ccccc1)C1CCCCC1.[Br-] [N-benzyl-N,N-dimethylcyclohexanaminium bromide]
Retained Firefly Luminescence (%) [1]: 90%
Retained Renilla Luminescence (%) [3]: 76%
Selectivity Value [3]: 1.2

CCCCCC[N+](C)(C)Cc1ccccc1.[Br-] [N-benzyl-N,N-dimethylhexan-1-aminium bromide]
Retained Firefly Luminescence (%) [1]: 103%
Retained Renilla Luminescence (%) [3]: 54%
Selectivity Value [3]: 1.9

CCCCCCCCCCCC[N+](C)(C)C1c2ccccc2-c2ccccc21.[Br-] [N-dodecyl-N,N-dimethyl-9H-fluoren-9-aminium bromide]
Retained Firefly Luminescence (%) [1]: 37%
Retained Renilla Luminescence (%) [3]: 1%
Selectivity Value [3]: 37

O=C(Cc1ccc(O)cc1)Nc1ncc(-c2ccc(O)cc2)nc1Cc1ccccc1 [coelenteramide]
Reduction in Renilla luciferase luminescence after 2nd measurement [8, 10]: 18-fold
Reduction in Renilla luciferase luminescence after 2nd measurement [8, 11]: 21-fold
Ki ([8]; in the presence of lysing detergent and quenching reagent): > 100 µM

N-benzyl-N,N-dimethylloctan-1-aminium bromide
Retained Firefly Luminescence (%) [1]: 134%
Retained Renilla Luminescence (%) [3]: 13%
Selectivity Value [3]: 10.3

methylether coelenterazine-h
Reduction in Renilla luciferase luminescence after 2nd measurement [8, 10]: 15-fold
Reduction in Renilla luciferase luminescence after 2nd measurement [8, 11]: 30-fold

methylether coelenterazine-hh
Reduction in Renilla luciferase luminescence after 2nd measurement [8, 10]: 21-fold
Reduction in Renilla luciferase luminescence after 2nd measurement [8, 11]: 34-fold

Reference: patent US20080248511A1, “METHODS TO QUENCH LIGHT FROM OPTICAL REACTIONS” (priority 2007, published 2008)
